Consider 4 compounds from paper PMC9686568, “Novel Alligator Cathelicidin As-CATH8 Demonstrates Anti-Infective Activity against Clinically Relevant and Crocodylian Bacterial Pathogens” (Antibiotics, 2022).

The test system of data set [1] is human bronchial epithelial (HBE) cells. The data set can be described thus: LDH release cytotoxicity assay. It counts as cell-based. Particulars: HBE cells (16HBE14o-); at the highest concentrations tested (5 and 10 μM); relative to Triton X-100 control. Here is the method: Immortalized human bronchial epithelial (HBE) cells (16HBE14o-) were used for in vitro cytotoxicity experiments as described elsewhere.
(§1) Peptide-induced cytotoxicity was assessed by measuring the extracellular activity of the LDH enzyme using the Cytotoxicity Detection Kit (MilliporeSigma, Burlington, MA, USA) as previously described. The percentage of LDH release relative to the untreated (negative) and Triton X-100 (positive, 100% cytotoxicity) control was assessed for at least three biological replicates and recorded as percent cytotoxicity.
(LDH in the medium is a marker of cell lysis.)

Data set [2] deals with peripheral blood mononuclear cells (PBMCs). The data set can be described thus: LDH release cytotoxicity assay. The format is cell-based. To be noted: human PBMCs; at the highest concentrations tested (5 and 10 μM); relative to Triton X-100 control. On the procedure:
Human PBMCs were isolated from human blood following the ethics protocols of the University of British Columbia, Canada. Consent was obtained from healthy volunteers before blood donation. Isolation and treatment of unstimulated PBMC was performed as previously described.
as §1

The subject of data set [3] is P. vulgaris. It counts as cell-based, P. vulgaris HSC7200-T2. To be noted: microdilution in MHB. On the procedure:
(§2) The following bacterial pathogens were used in this study: S. enterica subsp. enterica serovar Typhimurium ATCC 14028, E. coli O157:H7 [83], the clinical isolates S. aureus SAP0017 [84] and USA300 LAC [85], E. faecium #1-1 [85], A. baumannii Ab5075 [85] and E. cloacae 218R1 [85], as well as P. aeruginosa PAO1 [34], P. vulgaris HSC7200-T2 (Hancock Lab strain collection) and K. pneumoniae KPLN49 [85].
(§3) Overnight cultures were grown in LB at 37 °C with shaking at 250 rpm, except for E. faecium, which was grown in BHI medium.
(§4) The antimicrobial activity of the crocCATHs was evaluated with the broth microdilution method as described previously. MIC was defined as the first peptide or antibiotic concentration without visible bacterial growth. Reported values are the statistical mode of at least three independent experiments.
(Dilution methods test growth across graded concentrations, often in twofold steps.)

For data set [4] the following is noted: cited from earlier work. The text has this:
It is well-known that HDPs can interact with multiple extracellular and intracellular targets to exert their antimicrobial and antibiofilm effects. […] Although it seems likely that compromising the integrity of the membrane is a key component of the killing mechanism of As-CATH8, this may not always be a fatal event and additional or alternative activities might also play a significant role. Two main elements support this idea: first, maxim ...

The test system of data set [5] is K. pneumoniae. As to the kind of experiment: MIC, broth microdilution in MHB. It counts as cell-based, K. pneumoniae KPLN49. Here is the method:
as §2, §3, §4

For data set [6], the system named is P. aeruginosa. The data set can be described thus: MIC, broth microdilution in MHB. The format is cell-based, P. aeruginosa PAO1. On the procedure: as §2, §3, §4
Data set [7] has as its system A. baumannii. The data set can be described thus: MIC, broth microdilution in MHB. It counts as cell-based, A. baumannii Ab5075. Here is the method: as §2, §3, §4
Data set [8] has as its system planktonic A. baumannii. As to the kind of experiment: Planktonic time-kill assay. It counts as cell-based. Particulars: ~5 × 10^5 CFU/mL in MHB, at the MIC, 37 °C. On the procedure:
The bactericidal activity of As-CATH8 and antibiotics was evaluated against planktonic S. aureus SAP0017 and A. baumannii cells under similar conditions to those used in the antimicrobial assays. Bacteria were grown overnight in LB media and diluted to ~5 × 10^5 CFU/mL in MHB. […] Samples were taken at 0, 0.5, 1, 2 and 20 h after treatment and CFU counts determined by serial dilution and plating on LB agar.

The subject of data set [9] is E. coli. It counts as cell-based, E. coli O157:H7. To be noted: microdilution in MHB. On the procedure: as §2, §3, §4
In data set [10] the test system is A. baumannii cytoplasmic membrane. As to the kind of experiment: Membrane depolarization (DiSC3(5)) and permeabilization (PI) assay with CFU enumeration. It counts as cell-based. To be noted: A. baumannii planktonic cells, 1 h treatment. Here is the method: The cytoplasmic membrane depolarization and permeabilization activities of As-CATH8 compared to those of antibiotics (vancomycin or polymyxin B) were assessed against S. aureus SAP0017 and A. baumannii using the membrane-potential sensitive dye DiSC3(5) and the cell viability dye PI [36]. The membrane-permeabilizing peptide mastoparan was included as a positive control and water served as a negative (untreated) control.
Briefly, after growth in LB, mid-log phase bacteria were centrifuged and washed twice with 5 mM HEPES buffer supplemented with 20 mM glucose (HEPES-Gluc). Cell density was adjusted to ~10^7 CFU/mL in (HEPES-Gluc) supplemented with 0.1 M KCl. […] After incubation, 190 μL/well of the cultures were added to black opaque 96-well plates (Corning Inc.) and pre-treatment fluorescence was monitored every 2 min for a total of 10 min using a Synergy H1 Hybrid Multi-Mode Reader (BioTek, Winooski, VT, USA). […] After assessing that fluorescence values remained stable, bacteria were treated with 10 μL/well of peptide, antibiotic or water. Fluorescence was quantified 1 h after treatment under the same conditions and represented as a function of peptide concentration, subtracting the background of untreated cells.
To assess bacterial survival after treatment, supernatants from the fluorescence assays were serial diluted and plated for CFU enumeration. […]

Data set [11] has as its system E. cloacae. It counts as cell-based, E. cloacae 218R1. To be noted: E. cloacae, microdilution in MHB. On the procedure:
as §2, §3, §4

Data set [12] deals with A. baumannii biofilms. The data set can be described thus: Biofilm-killing assay. It counts as cell-based. Particulars: A. baumannii 24 h biofilms, 10% TSB + 0.1% glucose, 64 × MIC. On the procedure: (§5) Biofilm-killing assays were set up like the biofilm inhibition assays previously described. […] Plates were incubated at 37 °C and bacterial biomass was scraped out of the wells with cotton swabs at 0, 0.5, 1, 2 and 20 h after treatment. Cotton tips were placed in 1 mL of LB and sonicated for 5 min, and bacterial numbers were determined by serial dilution and plating on LB agar.

The subject of data set [13] is linearized plasmid pET28a. As to the kind of experiment: Agarose gel electrophoretic mobility shift assay (DNA binding). Here is the method: To investigate the DNA binding capacity of As-CATH8, vancomycin and polymyxin B, an agarose gel electrophoretic mobility shift assay was performed as previously described. Briefly, overnight cultures of E. coli BL21 Star cells harboring the pET28a plasmid were grown in LB supplemented with kanamycin (30 μg/mL). The pET28a plasmid was purified using the QIAprep Spin Miniprep Kit (QIAGEN Inc., Hilden, Germany) and linearized with the SmaI endonuclease (Thermofisher Scientific, Waltham, MA, USA). Linear pET28a was purified from an agarose gel using the QIAquick Gel Extraction Kit (QIAGEN Inc., Hilden, Germany).
Twofold decreasing amounts of As-CATH8 or antibiotics were incubated for 1 h at room temperature with 100 ng of linear pET28a in 10 μL of binding buffer (5% glycerol, 10 mM Tris-HCl pH 8.0, 1 mM EDTA, 1 mM DTT, 20 mM KCl and 50 μg/mL BSA). After this, 2 μL of 6× DNA Loading Dye (Thermofisher Scientific, Waltham, MA, USA) was added and the mixture was loaded onto a 1% agarose gel in TAE buffer containing SYBR Safe (Thermofisher Scientific, Waltham, MA, USA). The gel was run at 100 V for 1 h and the GeneRuler 1 kb DNA ladder (Thermofisher Scientific, Waltham, MA, USA) was used as a molecular weight marker. Finally, the gel was imaged on a ChemiDoc Touch Imaging System (BioRad Laboratories, Montreal, QC, Canada).

In data set [14] the test system is S. Typhimurium. The format is cell-based, S. enterica subsp. enterica serovar Typhimurium ATCC 14028. To be noted: S. Typhimurium, microdilution in MHB. On the procedure: as §2, §3, §4
The conditions of data set [15]: subcutaneous, 15 mg/kg, peptide alone, uninfected animals. The text has this:
The antibacterial capacities of As-CATH8 and Gg-CATH5 were further evaluated in the murine skin infection/abscess model. Mice were inoculated with clinical isolates of S. aureus and A. baumannii, two frequent causes of human skin infections. […] Therefore, the peptides were considered non-toxic at the doses used.

The test system of data set [16] is E. faecium. As to the kind of experiment: MIC, broth microdilution in MHB. The format is cell-based, E. faecium #1-1. On the procedure:
as §2, §3, §4

The subject of data set [17] is S. aureus SAP0017 biofilms. As to the kind of experiment: Biofilm-killing assay. It counts as cell-based. Particulars: S. aureus 24 h biofilms, 64 × MIC. Here is the method: as §5
The subject of data set [18] is S. aureus. The data set can be described thus: MIC, broth microdilution in MHB. The format is cell-based. Here is the method: as §2, §3, §4
In data set [19] the test system is S. aureus SAP0017 cytoplasmic membrane. As to the kind of experiment: Membrane depolarization (DiSC3(5)) and permeabilization (PI) assay with CFU enumeration. It counts as cell-based. To be noted: S. aureus planktonic cells, 1 h treatment.
[20] abbreviates: first concentration without visible growth, mode of at least three independent experiments.

Like-named read-outs stand apart in the source and are kept apart here.

With “VRLIVAVRIWRR-NH2 [IDR-1018, immunomodulatory peptide used as control]”, the “Cytotoxicity (LDH release)” value in data set [1] and in data set [2] was “low cytotoxicity” throughout.

What is called MIC is the smallest concentration in the dilution series that meets the test's criterion for growth inhibition. For the compound polymyxin B, the MIC in data set [3] (setting [20]) is greater than 64 µM; in data set [3] (value in brackets of Table S4), greater than 77 µg/mL; in data set [5] (setting [20]), 0.5 µM; in data set [5] (value in brackets of Table S4), 0.6 µg/mL; in data set [6] (setting [20]), 0.5 µM; in data set [6] (value in brackets of Table S4), 0.6 µg/mL. For the same compound, the MIC turned out to be 0.5 µM in data set [7] (setting [20]); 0.6 µg/mL in data set [7] (value in brackets of Table S4); 0.5 µM in data set [9] (setting [20]); 0.6 µg/mL in [9] (value in brackets of Table S4); 0.5 µM in [11] (setting [20]); 0.6 µg/mL in data set [11] (value in brackets of Table S4). Moreover, the MIC in data set [14] (setting [20]) came out at 1 µM; in [14] (value in brackets of Table S4), 1.2 µg/mL. Also, the Net charge entry in data set [4] is listed as “+5”. For the same compound, the “Time to complete killing of planktonic cells” value in data set [8] was “up to 20 h”. Further, the “Membrane depolarization (DiSC3(5) fluorescence) and permeabilization (PI fluorescence), result in words” value in data set [10] is given as “almost no effect”. Further, the “Time to complete eradication of biofilms” value in data set [12] is reported as 20 h. Also, the “Capacity for binding to DNA, result in words” value in data set [13] is “weak”.

On to `CC[C@H](C)[C@H](NC(=O)[C@H](CCCCN)NC(=O)[C@H](CCC(=O)O)NC(=O)[C@H](CCCCN)NC(=O)[C@H](CO)NC(=O)[C@H](CCCCN)NC(=O)[C@H](CCCNC(=N)N)NC(=O)[C@H](Cc1ccccc1)NC(=O)[C@H](Cc1ccccc1)NC(=O)[C@H](CC(=O)O)NC(=O)CNC(=O)[C@H](CC(C)C)NC(=O)[C@@H](N)CC(C)C)C(=O)NCC(=O)N[C@@H](CCCCN)C(=O)N[C@@H](CCC(=O)O)C(=O)N[C@@H](Cc1ccccc1)C(=O)N[C@@H](CCCCN)C(=O)N[C@@H](CCCNC(=N)N)C(=O)N[C@H](C(=O)N[C@H](C(=O)N[C@@H](CCC(N)=O)C(=O)N[C@@H](CCCNC(=N)N)C(=O)N[C@H](C(=O)N[C@@H](CCCCN)C(=O)N[C@@H](CC(=O)O)C(=O)N[C@@H](Cc1ccccc1)C(=O)N[C@@H](CC(C)C)C(=O)N[C@@H](CCCNC(=N)N)C(=O)N[C@@H](CC(N)=O)C(=O)N[C@@H](CC(C)C)C(=O)N[C@H](C(=O)N1CCC[C@H]1C(=O)N[C@@H](CCCNC(=N)N)C(=O)N[C@H](C(=O)N[C@@H](CCC(=O)O)C(=O)N[C@@H](CO)C(=O)O)[C@@H](C)O)C(C)C)[C@@H](C)CC)C(C)C)[C@@H](C)CC` [LL-37], for which the “Cytotoxicity (LDH release)” value in data set [1] and in [2] was “moderately cytotoxic” each time. In addition, the “Tissue damage or peptide precipitation at the site of injection” value in data set [15] is “no evidence of tissue damage or peptide precipitation”. The compound also gave an MIC in data set [14] (value in brackets of Table S4) of 72 µg/mL.

As to `CN[C@H](CC(C)C)C(=O)N[C@H]1C(=O)N[C@@H](CC(N)=O)C(=O)N[C@H]2C(=O)N[C@H]3C(=O)N[C@H](C(=O)N[C@H](C(=O)O)c4cc(O)cc(O)c4-c4cc3ccc4O)[C@H](O)c3ccc(c(Cl)c3)Oc3cc2cc(c3O[C@@H]2O[C@H](CO)[C@@H](O)[C@H](O)[C@H]2O[C@H]2C[C@](C)(N)[C@H](O)[C@H](C)O2)Oc2ccc(cc2Cl)[C@H]1O` [Vancomycin, vancomycin], the Net charge result in data set [4] was “+1”. The MIC was greater than 64 µM in [16] (Enterococcus faecium, first concentration without visible growth, mode of at least three independent experiments); greater than 93 µg/mL in data set [16] (Enterococcus faecium, value in brackets of Table S4); greater than 64 µM in data set [16] (setting [20]); 0.5 µM in data set [18] (Staphylococcus aureus, first concentration without visible growth, mode of at least three independent experiments); 0.7 µg/mL in data set [18] (Staphylococcus aureus, value in brackets of Table S4); 0.5 µM in [18] (setting [20]). Further, the “Effect on biofilms at 2 h, result in words” value in data set [17] (2 h time point) is given as “modest effect”. Further, the “Effect on biofilms after 20 h, result in words” value in data set [17] (20 h of treatment) is reported as “potent activity”. Moreover, the “Membrane depolarization (DiSC3(5) fluorescence) and permeabilization (PI fluorescence), result in words” value in data set [19] is on record as “almost no effect”. For the same compound, the “Capacity for binding to DNA, result in words” value in data set [13] was “no”.
